From EP3156398A1, “AGONISTS OF THE CHEMOKINE RECEPTOR CXCR3” (Friedrich-Alexander-Universität Erlangen-Nürnberg, priority 2015, dated 2017)

How the values were obtained:
CXCR3-PK1 = target: T1, CXCR3-PK1 (Homo sapiens, UniProt P49682); test: β-arrestin 2 recruitment assay (PathHunter, DiscoveRx), CXCR3-PK1 construct; assay type: cell-based; settings: for CXCR3-PK1 pEC50 ± SEM: HEK293-T cells, PathHunter, two to three experiments in triplicate
T1 construct: expressed in transfected cells; host or cells: HEK293 cells stably expressing beta-gal enzyme acceptor (PathHunter, DiscoveRx), transiently transfected
T1 sequence (P49682 1-368): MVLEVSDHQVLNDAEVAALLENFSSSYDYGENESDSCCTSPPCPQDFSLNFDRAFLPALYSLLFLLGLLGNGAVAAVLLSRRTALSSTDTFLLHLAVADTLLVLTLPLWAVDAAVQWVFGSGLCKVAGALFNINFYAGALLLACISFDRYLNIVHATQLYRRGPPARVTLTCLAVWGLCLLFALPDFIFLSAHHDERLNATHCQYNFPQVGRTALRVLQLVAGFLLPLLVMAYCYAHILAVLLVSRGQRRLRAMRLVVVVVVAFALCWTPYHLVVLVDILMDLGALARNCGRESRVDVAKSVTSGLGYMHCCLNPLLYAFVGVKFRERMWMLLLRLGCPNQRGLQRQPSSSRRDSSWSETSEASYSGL
Procedure: β-arrestin 2 recruitment assay: The measurement of β-arrestin recruitment was performed utilizing the PathHunter assay purchased from DiscoveRx (DiscoveRx, Birmingham, U.K.) according to the manufacturer's protocol. HEK293 cells stably expressing β-gal enzyme acceptor were transiently transfected with the ProLink (PK1) tagged wildtype CXCR3 receptor using the TransIT-293 transfection reagent from Mirus (purchased from MoBiTec, Goettingen, Germany). The assay was carried out in 384-well plates containing 2000 cells in 20 µL. After incubation at 37°C (5% CO2, 95% relative humidity) overnight, various concentrations of test compounds or CXCL11 (prepared in PBS, pH 7.4, containing 0.20% BSA) were added and the incubation continued for 4 h. Detection mix was then added and incubated for further 60 min at room temperature. Chemiluminescence was determined with a microplate reader Clariostar (BMG labtech, Ortenberg, Germany).
The ability of the novel ligands according to the present invention to induce CXCR3-mediated β-arrestin 2 recruitment was investigated in the assay system PathHunter (DiscoveRx), which detects the recruitment of β-amestin 2 to the activated receptor using β-galactosidase (β-gal) enzyme fragment complementation. The inventors used two different ProLink tags, ProLink1 (PK1) and ProLink2 (PK2), of which PK2 has higher affinity for the enzyme acceptor to detect weak protein-protein interactions. The CXCR3-PK2 construct is readily able to detect the differences in the propensity of CXCL11 and CXCL10 to induce β-arrestin 2 recruitment at CXCR3. […] Table 3. Ability of the 46/VUF10661 based positive allosteric modulators to activate the CXCR3 as measured in the β-arrestin 2 recruitment assay (PathHunter, DiscoveRx).[a]

CXCR3 = target: T2, CXCR3 (Homo sapiens, UniProt P49682); test: [35S]GTPγS incorporation assay; assay type: biochemical; settings: for Emax / CXCR3 Efficacy (%) ± SEM: % of CXCL11 mediated effect; for Emax / CXCR3 pEC50 ± SEM / CXCR3 Efficacy (%) ± SEM: membrane preparations of HEK293T stably expressing CXCR3; for Emax: read-out: CXCR3 Efficacy (%) ± SEM; for CXCR3 pEC50 ± SEM: mean of three experiments in triplicate; for CXCR3 mediated G protein activation (result in words): [35S]GTPγS incorporation
T2 construct: expressed in transfected cells; host or cells: HEK293 / HEK293T cells, stably transfected; membrane preparations
T2 sequence (P49682 1-368): T1 sequence (P49682 1-368)
Procedure: Membrane preparation for allosteric radioligand RAMX3 displacement and [^35S]GTPγS incorporation assays: The human embryonic kidney (HEK) cells stably expressing the human CXCR3 receptor were cultured in 150-mm cell culture plates in DMEM/F-12 supplemented with 10% fetal bovine serum (FBS), 2 mM L-glutamine, 1% penicillin-streptomycin, 300 µgmL^-1 Zeocin and incubated at 37 °C in a humid atmosphere with 5% CO2. At 100% confluency cells were washed with PBS twice, treated with Tris EDTA buffer (10 mM Tris, 0.5 mM EDTA, 5 mM KCl, 140 mM NaCl, pH 7.4), and harvested using a cell scraper. Cells were pelleted at 1100×g for 8 min at 4 °C, resuspended in Tris-EDTA-MgCl2 buffer (50mM Tris, 5 mM EDTA, 1.5 mM CaCl2, 5 mM MgCl2, 5 mM KCl, 120 mM NaCl, pH 7.4) and followed by lysis with an Ultra-Turrax. After centrifugation at 50,000•g, at 4°C for 18 min the membranes were resuspended in the binding buffer (50 mM Tris, 1 mM EDTA, 5 mM MgCl2 and subsequently homogenized with a glass-Teflon homogenizer (20 strokes). The homogenized membranes were shock-frozen in liquid nitrogen and stored at -80°C. The protein concentration was determined with the Lowry method with bovine serum albumin used as a standard.^35
[^35S]GTPγS incorporation assay: The [^35S]GTPγS incorporation assay was performed on membrane preparations of stably transfected HEK293 cells that expressed the CXCR3 receptor. The assay was carried out in 96-well plates at the final volume of 200 µL. The incubation buffer contained 20 mM HEPES, 10 mM MgCl2•6H20,100 mM NaCl and 100 mg/L saponin (pH 7.4). Membranes (30 µgmL^-1 of membrane protein), various concentrations of test compound and CXCL11, and 1 µM GDP were preincubated in the absence of [^35S]GTPγS for 30 min at 37 °C. After the addition of 0.10 nM [^35S]GTPγS membranes were incubated for additional 30 min at 37 °C. Incubation was terminated by filtration through Whatman GF/B filters soaked with ice cold PBS. The filter-bound radioactivity was measured as described above. Three to four experiments per compound were performed with each concentration in triplicate.
The activation of G proteins was explored in terms of CXCR3 mediated [^35S]GTPγS incorporation. In the [^35S]GTPγS incorporation assay the membrane preparations of HEK293T cells stably expressing CXCR3 were used. The activation of G proteins was monitored as the incorporation of [^35S]GTPγS and thus increase in the incorporated radioactivity. The potency and efficacy of the novel compounds was first compared to the reference compound 46/VUF10661. […] Table 1. The ability of the 46/VUF10661 based positive allosteric modulators to activate CXCR3 as measured in the [35S]GTPγS incorporation assay.[a]

Compound	β-arrestin 2 recruitment, intrinsic agonism (result in words) (CXCR3-PK1)	CXCR3-PK1 pEC50 ± SEM (CXCR3-PK1)	Emax (CXCR3) [%]	CXCR3 pEC50 ± SEM (CXCR3)	CXCR3 Efficacy (%) ± SEM (CXCR3)	CXCR3 mediated G protein activation (result in words) (CXCR3)
CC(C)(C)OC(=O)N[C@@H](CCCCNC(=O)[C@@H]1Cc2ccccc2CN1C(=O)CCC(=O)c1ccc(F)cc1)C(=O)NCC(c1ccccc1)c1ccccc1 [Compound 13, Tert-butyl ((S)-1-((2,2-diphenylethyl)amino)-6-((S)-2-(4-(4-fluorophenyl)-4-oxobutanoyl)-1,2,3,4-tetrahydroisoquinoline-3-carboxamido)-1-oxohexan-2-yl)carbamate]	complete loss of intrinsic agonistic properties	No effect	20 ± 3	6.29±0.31	–	–
CC(C)(C)OC(=O)N[C@@H](CCCCNC(=O)[C@@H]1Cc2ccccc2CN1C(=O)CCC(=O)c1ccc(S(C)(=O)=O)cc1)C(=O)NCC(c1ccccc1)c1ccccc1 [Compound 15, Tert-butyl ((S)-1-((2,2-diphenylethyl)amino)-6-((S)-2-(4-(4-(methylsulfonyl)phenyl)-4-oxobutanoyl)-1,2,3,4-tetrahydroisoquinoline-3-carboxamido)-1-oxohexan-2-yl)carbamate]	complete loss of intrinsic agonistic properties	No effect	25 ± 3	5.91±0.20	–	–
CC(C)(C)OC(=O)N[C@@H](CCCCNC(=O)[C@@H]1Cc2ccccc2CN1C(=O)CCC(=O)N1CCCCC1)C(=O)NCC(c1ccccc1)c1ccccc1 [Compound 16, Tert-butyl ((S)-1-((2,2-diphenylethyl)amino)-1-oxo-6-((S)-2-(4-oxo-4-(piperidin-1-yl)butanoyl)-1,2,3,4-tetrahydroisoquinoline-3-carboxamido)hexan-2-yl)carbamate]	–	No effect	–	No effect	No effect	no reactivity was observed
CC(C)(C)OC(=O)N[C@@H](CCCCNC(=O)[C@@H]1Cc2ccccc2CN1C(=O)CCC(=O)N1CCOCC1)C(=O)NCC(c1ccccc1)c1ccccc1 [Compound 17, Tert-butyl ((S)-1-((2,2-diphenylethyl)amino)-6-((S)-2-(4-moipholino-4--oxobutanoyl)-1,2,3,4-tetrahydroisoquinoline-3-carboxamido)-1-oxohexan-2 yl)carbamate]	–	No effect	–	No effect	No effect	no effect
CN1CCN(C(=O)CCC(=O)N2Cc3ccccc3C[C@H]2C(=O)NCCCC[C@H](NC(=O)OC(C)(C)C)C(=O)NCC(c2ccccc2)c2ccccc2)CC1.O=C(O)C(F)(F)F [Compound 18, 4-(4-((S)-3-(((S)-5-((tert-butoxycarbonyl)amino)-6-((2,2-diphenylethyl)amino)-6-oxohexyl)carbamoyl)-3,4-dihydroisoquinolin-2(1H)-yl)-4-oxobutanoyl)-1-methylpiperazin-1-ium 2,2,2-trifluoroacetate]	–	No effect	–	No effect	No effect	no effect
CC(C)(C)OC(=O)N[C@@H](CCCCNC(=O)[C@@H]1Cc2ccccc2CN1C(=O)CCC(=O)c1cccs1)C(=O)NCC(c1ccccc1)c1ccccc1 [Compound 19, Tert-butyl ((S)-1-((2,2-diphenylethyl)amino)-1-oxo-6-((S)-2-(4-oxo-4-(thiophen-2-yl)butanoyl)-1,2,3,4-tetrahydroisoquinoline-3-carboxamido)hexan-2-yl)carbamate]	–	No effect	–	No effect	No effect	–
CC(C)(C)OC(=O)N[C@@H](CCCCNC(=O)[C@@H]1Cc2ccccc2CN1C(=O)CCC(=O)c1ccco1)C(=O)NCC(c1ccccc1)c1ccccc1 [Compound 20, Tert-butyl ((S)-1-((2,2-diphenylethyl)amino)-6-((S)-2-(4-(furan-2-yl)-4-oxobutanoyl)-1,2,3,4-tetrahydroisoquinoline-3-carboxamido)-1-oxohexan-2-yl)carbamate]	–	No effect	–	No effect	No effect	–
